The target in assay [1] is Protein-arginine deiminase type-4 (Homo sapiens, UniProt Q9UM07). Briefly: IC50 against protein arginine deiminase 4 – biochemical, fluorescence readout, dose response (AID 492970).
Assay [2] is described as follows: cells. The class given is functional, cell-based.
Another assay relates to HEK293. Briefly: EBV LMP1 TES2 canonical NF-kB signalling blockers – cell-based, HEK293, luciferase, cherry-pick, dose response (AID 588343). The class given is functional. The following applies: Homo sapiens.
For assay [3], the target named is T1, Kappa-type opioid receptor (Homo sapiens, UniProt P41145). The class given is functional.
T1 sequence (P41145 whole entry): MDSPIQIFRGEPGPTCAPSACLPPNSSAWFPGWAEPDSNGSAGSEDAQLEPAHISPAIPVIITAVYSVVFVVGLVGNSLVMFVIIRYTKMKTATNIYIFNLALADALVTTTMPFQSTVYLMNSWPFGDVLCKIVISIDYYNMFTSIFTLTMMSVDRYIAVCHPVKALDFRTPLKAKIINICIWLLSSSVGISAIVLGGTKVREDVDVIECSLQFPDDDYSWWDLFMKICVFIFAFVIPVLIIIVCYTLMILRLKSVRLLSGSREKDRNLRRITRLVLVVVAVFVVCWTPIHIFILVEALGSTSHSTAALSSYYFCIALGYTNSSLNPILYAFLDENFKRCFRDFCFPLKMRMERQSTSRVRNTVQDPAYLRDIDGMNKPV
The nature of assay [4]: HEK-293T viability loss after treatment – luminescence, T-cell screen hits, cytotoxicity control for TCR NF-kB inhibitor project, dose response (AID 489026).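 Further: cells exposed to compound about 14 hours before the viability readout.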 The class given is functional, cell-based.
The target of another assay is Exodeoxyribonuclease V (Escherichia coli (strain K12), UniProt P04993+P07648+P08394). Briefly: RecBCD inhibition via phage-restricted bacterial growth – absorbance, V66 E. coli, mutant T4 phage, counter-screen for AddAB inhibitor project, dose response (AID 492957). The class given is functional, cell-based, Escherichia coli str. K-12 substr. MG1655.
The target in the next assay is Beta-galactosidase (Escherichia coli, UniProt Q8VNN2). Format: functional.
Beta-galactosidase, sequence (Q8VNN2 whole entry): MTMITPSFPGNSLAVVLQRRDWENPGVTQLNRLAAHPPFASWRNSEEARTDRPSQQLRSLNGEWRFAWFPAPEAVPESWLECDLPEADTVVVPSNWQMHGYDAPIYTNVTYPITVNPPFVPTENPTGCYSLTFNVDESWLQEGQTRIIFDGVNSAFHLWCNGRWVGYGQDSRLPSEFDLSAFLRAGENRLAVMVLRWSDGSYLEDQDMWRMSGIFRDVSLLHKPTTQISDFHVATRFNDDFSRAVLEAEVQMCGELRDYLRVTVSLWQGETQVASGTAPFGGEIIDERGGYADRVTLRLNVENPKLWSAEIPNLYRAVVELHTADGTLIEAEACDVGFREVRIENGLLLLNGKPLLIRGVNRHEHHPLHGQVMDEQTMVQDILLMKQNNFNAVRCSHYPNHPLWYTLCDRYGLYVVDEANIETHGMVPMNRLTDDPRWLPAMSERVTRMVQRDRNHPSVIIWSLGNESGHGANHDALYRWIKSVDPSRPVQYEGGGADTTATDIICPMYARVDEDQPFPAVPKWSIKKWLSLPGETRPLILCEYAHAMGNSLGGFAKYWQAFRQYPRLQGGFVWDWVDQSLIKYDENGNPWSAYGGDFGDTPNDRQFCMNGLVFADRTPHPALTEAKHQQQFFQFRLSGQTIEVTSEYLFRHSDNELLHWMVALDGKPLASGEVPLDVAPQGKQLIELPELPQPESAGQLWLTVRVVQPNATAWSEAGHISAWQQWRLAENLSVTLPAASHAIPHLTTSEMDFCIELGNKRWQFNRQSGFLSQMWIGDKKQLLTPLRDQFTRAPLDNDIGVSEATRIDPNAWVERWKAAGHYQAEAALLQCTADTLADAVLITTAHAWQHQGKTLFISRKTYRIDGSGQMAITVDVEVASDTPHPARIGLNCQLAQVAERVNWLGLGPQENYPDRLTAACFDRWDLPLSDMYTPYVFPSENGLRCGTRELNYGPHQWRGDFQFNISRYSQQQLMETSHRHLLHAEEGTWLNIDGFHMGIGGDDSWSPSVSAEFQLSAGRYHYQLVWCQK
Assay [5] in a line: Trypanosoma cruzi growth suppression in host cells – NIH3T3 host cells, beta-gal luminescence, confirmation (AID 2044).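 Further: intracellular parasites grown in NIH/3T3 mouse fibroblasts as host cells; luminescent beta-galactosidase reporter signal from transgenic T. cruzi replicating inside host cells; inhibitors lower the luminescence signal.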 The class given is functional, cell-based.
A short description of assay [6]: Luminescence Cell-Based Dose Response HTS to Identify Inhibitors of 5'UTR Stem-Loop Driven Prion Protein mRNA Translation in H4 Neuroglioblastoma Cells. [Related pubchem assays: 1827 (Project Summary), 1813 (Primary HTS)]. Format: functional.
The target of assay [7] is T1, Kappa-type opioid receptor. Format: functional. This is another data set of the same source.
Assay [8] can be described thus: NIH3T3 cell viability loss – ATP luminescence, mouse fibroblasts, counter-screen, dose response (AID 2010).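 Further: cells exposed to compound for about 90 hours before reading.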 The class given is functional, cell-based. In general terms: Counterscreens check selectivity or assay interference.
The subject of the next assay is INS1. Nature of the assay: INS-1E survival protection against cytokine death – cell-based, luminescence, retest, dose response (AID 449756).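 Further: cell death triggered by IL-1 beta plus TNF-alpha plus IFN-gamma mixture; protective hits raise ATP signal compared with cytokine alone wells.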 The settings on record: Rattus norvegicus. The class given is functional.
The nature of assay [9]: alpha-synuclein stem-loop luciferase translation blockers – H4 neuroglioma cells, luminescence, confirmation (AID 1988). The class given is functional, cell-based.
A short description of assay [10]: luciferase reporter signal suppression in cells – H4 neuroglioma cells, luminescence, dose response (AID 1990). The class given is functional, cell-based. (A reporter such as luciferase makes a cellular process visible.)
Assay [11] can be described thus: cells. Format: functional, cell-based. This is another data set of the same source.
For a further assay, the target named is Nonstructural protein 1 (Influenza A virus, UniProt Q194T2). Format: functional, Influenza A virus (A/California/07/2009(H1N1)).
In assay [12] the target is T2, Heat shock factor protein 1 (Mus musculus, UniProt P38532).
T2 sequence (P38532 whole entry): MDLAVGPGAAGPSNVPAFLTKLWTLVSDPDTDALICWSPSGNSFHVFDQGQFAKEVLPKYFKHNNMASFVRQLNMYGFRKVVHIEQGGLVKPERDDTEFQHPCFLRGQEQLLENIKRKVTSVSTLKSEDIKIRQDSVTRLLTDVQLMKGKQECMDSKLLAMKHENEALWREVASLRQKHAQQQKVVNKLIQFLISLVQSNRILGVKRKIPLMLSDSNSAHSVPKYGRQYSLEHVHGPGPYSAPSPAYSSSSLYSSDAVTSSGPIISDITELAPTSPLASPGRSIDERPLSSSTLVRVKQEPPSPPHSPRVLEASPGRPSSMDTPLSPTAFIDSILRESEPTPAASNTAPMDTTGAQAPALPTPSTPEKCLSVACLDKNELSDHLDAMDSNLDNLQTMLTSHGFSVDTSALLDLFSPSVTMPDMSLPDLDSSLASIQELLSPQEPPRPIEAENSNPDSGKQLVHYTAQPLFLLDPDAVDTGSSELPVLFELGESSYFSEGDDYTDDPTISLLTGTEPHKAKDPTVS
Nature of the assay: decrease of HSF1-responsive luciferase luminescence – cell-based, NIH3T3, dose retest, confirmation (AID 2382).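 Further: NIH3T3 fibroblasts with HSF1-driven luciferase reporter stressed by proteasome inhibitor MG132; luminescence from HSF1-driven luciferase expression after 8 hours of MG132 stress.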 Format: functional.

The target of assay [13] is Heat shock protein HSP 90-alpha (Homo sapiens, UniProt P07900). Format: functional, organism-based.
Assay [14] in a line: Counterscreen for AddAB inhibitors: absorbance-based bacterial cell-based high throughput dose response assay for inhibitors of bacterial viability. [Related pubchem assays (depositor defined):AID435030, AID449728, AID449731, AID488942, AID488955, AID488956]. The class given is functional.
Assay [15] addresses Peroxisome proliferator-activated receptor gamma/Nuclear receptor coactivator 3 (Homo sapiens, UniProt P37231). Briefly: TR-FRET dose response biochemical High Throughput Screening assay for agonists of the steroid receptor coactivator 3 (SRC-3) recruitment by the peroxisome proliferator-activated receptor gamma (PPAR gamma): non-selective agonists. [Related pubchem assays: 1301 (Confirmation screen.), 1048 (Primary screen.)]. Format: functional.

Assay [16] deals with Peroxisome proliferator-activated receptor gamma/Nuclear receptor coactivator 2 (Homo sapiens, UniProt P37231). Nature of the assay: TR-FRET dose response biochemical High Throughput Screening assay for agonists of the steroid receptor coactivator 2 (SRC-2) recruitment by the peroxisome proliferator-activated receptor gamma (PPAR gamma): non-selective agonists. [Related pubchem assays: 1297, 1032 ]. The class given is functional. Background: In TR-FRET formats the signal depends on donor and acceptor labels being close together.

The target in assay [17] is Peroxisome proliferator-activated receptor gamma/Nuclear receptor coactivator 1 (Homo sapiens, UniProt P37231). Briefly: TR-FRET dose response biochemical High Throughput Screening assay for agonists of the steroid receptor coactivator 1 (SRC-1) recruitment by the peroxisome proliferator-activated receptor gamma (PPAR gamma): non-selective agonists. [Related pubchem assays (depositor defined):AID1300, AID1808, AID504735, AID631]. Format: protein assay.

Assay [18] has as its target T3, Alkaline phosphatase, tissue-nonspecific isozyme (Homo sapiens, UniProt P05186).
T3 sequence (P05186 whole entry): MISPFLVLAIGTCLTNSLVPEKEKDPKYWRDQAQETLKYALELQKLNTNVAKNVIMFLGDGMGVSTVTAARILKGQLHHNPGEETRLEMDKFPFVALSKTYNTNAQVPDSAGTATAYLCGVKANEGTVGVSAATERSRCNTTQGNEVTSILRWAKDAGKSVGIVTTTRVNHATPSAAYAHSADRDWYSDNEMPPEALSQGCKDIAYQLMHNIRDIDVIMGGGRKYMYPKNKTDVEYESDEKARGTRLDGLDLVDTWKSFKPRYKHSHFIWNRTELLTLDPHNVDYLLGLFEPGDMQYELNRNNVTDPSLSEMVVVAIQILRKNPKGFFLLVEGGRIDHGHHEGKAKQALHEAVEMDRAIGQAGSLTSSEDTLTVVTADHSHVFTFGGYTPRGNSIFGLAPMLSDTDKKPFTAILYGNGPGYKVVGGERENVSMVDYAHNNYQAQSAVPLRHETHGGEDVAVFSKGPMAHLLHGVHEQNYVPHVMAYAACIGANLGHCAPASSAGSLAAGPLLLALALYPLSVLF

The target of assay [19] is T4, Intestinal-type alkaline phosphatase (Homo sapiens, UniProt P09923). Nature of the assay: activation of human intestinal alkaline phosphatase – biochemical, luminescent, uHTS hits, set 2, dose response (AID 488817).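 Further: potency of activators that raise enzyme activity.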 Format: functional.
T4 sequence (P09923 whole entry): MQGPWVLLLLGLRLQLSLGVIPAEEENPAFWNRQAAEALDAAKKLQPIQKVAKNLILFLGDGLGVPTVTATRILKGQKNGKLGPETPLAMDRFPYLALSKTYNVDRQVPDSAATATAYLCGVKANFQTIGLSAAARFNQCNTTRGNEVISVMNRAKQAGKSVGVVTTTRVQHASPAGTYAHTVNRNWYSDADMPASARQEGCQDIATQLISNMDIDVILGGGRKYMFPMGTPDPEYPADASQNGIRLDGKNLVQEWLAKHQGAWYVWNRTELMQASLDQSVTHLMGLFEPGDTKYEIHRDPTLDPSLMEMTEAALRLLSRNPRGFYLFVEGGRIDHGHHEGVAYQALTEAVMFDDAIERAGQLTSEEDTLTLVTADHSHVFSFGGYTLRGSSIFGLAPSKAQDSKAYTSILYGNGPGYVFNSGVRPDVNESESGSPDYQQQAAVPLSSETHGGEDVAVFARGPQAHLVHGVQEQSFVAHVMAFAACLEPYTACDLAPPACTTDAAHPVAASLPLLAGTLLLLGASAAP
For assay [20], the target named is Intestinal-type alkaline phosphatase (Mus musculus, UniProt P24822). Nature of the assay: PubChem AID 488874. Format: functional.
Assay [21] is described as follows: cells. Format: functional.
The target in assay [22] is T4, Intestinal-type alkaline phosphatase. Nature of the assay: human intestinal alkaline phosphatase activators, dose response, biochemical, luminescence, uHTS hits (AID 463120). Format: functional.
Assay [23] addresses T3, Alkaline phosphatase, tissue-nonspecific isozyme. Nature of the assay: activation of tissue-nonspecific alkaline phosphatase – biochemical, TNAP isozyme, human IAP uHTS hits, selectivity assay for human IAP activator project, dose response (AID 488886).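 Further: potency of compounds raising TNAP activity as a selectivity check on IAP activators.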 Format: functional.
In assay [24] the target is T1, Kappa-type opioid receptor. Briefly: SAR analysis of small molecule agonists of the kappa opioid receptor via a luminescent beta-arrestin assay - Set 3. [Related pubchem assays (depositor defined):AID1777, AID1785, AID1786, AID1966, AID2133, AID2136, AID2284, AID2500]. The class given is functional.
In assay [25] the target is T1, Kappa-type opioid receptor. Briefly: kappa opioid receptor activation by imaging – image-based, set 3, SAR follow-up (AID 488833). Format: functional.
Assay [26] addresses Delta-type opioid receptor (Homo sapiens, UniProt P41143). Nature of the assay: SAR Analysis of Agonists of the DOR Receptor using an Image-Based Assay - Set 3. [Related pubchem assays (depositor defined):AID1777, AID1786]. The class given is functional.
In a further assay the target is Mu-type opioid receptor (Homo sapiens, UniProt P35372). Nature of the assay: SAR Analysis of Agonists of the MOR Receptor using an Image-Based Assay - Set 3. [Related pubchem assays (depositor defined):AID1777, AID1785, AID1786, AID1966, AID2133, AID2136, AID2284, AID2285, AID2352]. Format: functional.
Mu-type opioid receptor, sequence (P35372 whole entry): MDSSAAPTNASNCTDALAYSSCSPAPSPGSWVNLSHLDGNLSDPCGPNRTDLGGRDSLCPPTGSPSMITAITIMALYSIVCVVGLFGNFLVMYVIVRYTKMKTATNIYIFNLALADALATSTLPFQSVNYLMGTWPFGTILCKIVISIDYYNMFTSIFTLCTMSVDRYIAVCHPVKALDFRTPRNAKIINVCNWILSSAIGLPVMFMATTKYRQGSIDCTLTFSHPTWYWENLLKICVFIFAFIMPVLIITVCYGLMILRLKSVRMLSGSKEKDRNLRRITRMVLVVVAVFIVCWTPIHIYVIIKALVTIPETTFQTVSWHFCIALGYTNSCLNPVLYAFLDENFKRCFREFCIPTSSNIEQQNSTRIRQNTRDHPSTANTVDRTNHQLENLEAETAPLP
Assay [27] has as its target Sphingosine 1-phosphate receptor 1 (Homo sapiens, UniProt P21453). Briefly: Fluorescence-based counterscreen assay for S1P4 agonists: Cell-based dose response high throughput screening assay to identify agonists of the Sphingosine 1-Phosphate Receptor 1 (S1P1). [Related pubchem assays (depositor defined):AID1509, AID1523, AID1801, AID463107, AID463118, AID463119, AID463122, AID463123, AID463129, AID463225, AID504400, AID504460]. Format: functional.

Assay [28] addresses Sphingosine 1-phosphate receptor 4 (Homo sapiens, UniProt O95977). Briefly: Fluorescence dose response cell-based high throughput screening assay for agonists of the Sphingosine 1-Phosphate Receptor 4 (S1P4). [Related pubchem assays: 1509 (Primary screen.), 1523 (Confirmation screen in triplicates.)]. The class given is functional.
The target in another assay is Large T antigen (Simian virus 40, UniProt P03070). The class given is functional, Betapolyomavirus macacae.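 Further: Confirmatory-stage PubChem screen for compounds that inhibit SV40 T antigen.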
Large T antigen, sequence (P03070 whole entry): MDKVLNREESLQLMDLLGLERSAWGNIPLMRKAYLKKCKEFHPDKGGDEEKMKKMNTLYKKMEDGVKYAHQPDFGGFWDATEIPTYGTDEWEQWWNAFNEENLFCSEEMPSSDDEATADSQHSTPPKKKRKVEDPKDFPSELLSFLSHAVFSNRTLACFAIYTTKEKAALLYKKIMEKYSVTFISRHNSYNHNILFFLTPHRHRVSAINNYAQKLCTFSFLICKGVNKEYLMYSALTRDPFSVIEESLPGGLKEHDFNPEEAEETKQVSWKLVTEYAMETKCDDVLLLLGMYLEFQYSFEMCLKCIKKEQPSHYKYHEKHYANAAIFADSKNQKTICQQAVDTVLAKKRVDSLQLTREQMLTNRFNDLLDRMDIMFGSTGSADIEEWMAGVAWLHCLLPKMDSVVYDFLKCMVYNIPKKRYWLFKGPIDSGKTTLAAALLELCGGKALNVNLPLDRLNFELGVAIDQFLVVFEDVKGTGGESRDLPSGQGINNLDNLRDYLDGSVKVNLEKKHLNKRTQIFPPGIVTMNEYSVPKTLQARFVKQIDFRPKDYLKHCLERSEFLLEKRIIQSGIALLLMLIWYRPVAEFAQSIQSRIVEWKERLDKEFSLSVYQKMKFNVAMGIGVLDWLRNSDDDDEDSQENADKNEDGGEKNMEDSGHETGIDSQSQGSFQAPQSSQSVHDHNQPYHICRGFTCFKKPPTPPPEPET

Active and inactive are the calls of the source.

Sphingosine 1-phosphate receptor 1, sequence (P21453 whole entry): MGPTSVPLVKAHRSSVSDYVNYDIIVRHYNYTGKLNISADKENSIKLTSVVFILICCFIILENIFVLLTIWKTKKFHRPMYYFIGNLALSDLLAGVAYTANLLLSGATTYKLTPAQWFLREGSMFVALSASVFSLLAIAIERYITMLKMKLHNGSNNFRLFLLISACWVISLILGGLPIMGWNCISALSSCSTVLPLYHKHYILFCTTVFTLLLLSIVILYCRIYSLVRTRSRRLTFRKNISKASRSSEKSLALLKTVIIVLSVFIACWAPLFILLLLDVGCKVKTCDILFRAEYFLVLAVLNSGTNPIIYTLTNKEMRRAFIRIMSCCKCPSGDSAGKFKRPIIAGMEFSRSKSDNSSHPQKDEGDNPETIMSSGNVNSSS
Delta-type opioid receptor, sequence (P41143 whole entry): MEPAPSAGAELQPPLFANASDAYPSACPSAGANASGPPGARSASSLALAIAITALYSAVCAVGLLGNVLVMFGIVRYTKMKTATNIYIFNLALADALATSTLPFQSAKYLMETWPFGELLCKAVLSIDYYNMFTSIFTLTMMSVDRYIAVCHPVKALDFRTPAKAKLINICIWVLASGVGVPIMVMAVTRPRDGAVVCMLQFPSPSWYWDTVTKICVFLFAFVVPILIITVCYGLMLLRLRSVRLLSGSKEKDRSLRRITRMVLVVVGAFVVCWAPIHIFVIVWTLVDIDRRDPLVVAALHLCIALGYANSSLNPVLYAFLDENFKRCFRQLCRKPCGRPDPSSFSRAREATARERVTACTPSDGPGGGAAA
Protein-arginine deiminase type-4, sequence (Q9UM07 whole entry): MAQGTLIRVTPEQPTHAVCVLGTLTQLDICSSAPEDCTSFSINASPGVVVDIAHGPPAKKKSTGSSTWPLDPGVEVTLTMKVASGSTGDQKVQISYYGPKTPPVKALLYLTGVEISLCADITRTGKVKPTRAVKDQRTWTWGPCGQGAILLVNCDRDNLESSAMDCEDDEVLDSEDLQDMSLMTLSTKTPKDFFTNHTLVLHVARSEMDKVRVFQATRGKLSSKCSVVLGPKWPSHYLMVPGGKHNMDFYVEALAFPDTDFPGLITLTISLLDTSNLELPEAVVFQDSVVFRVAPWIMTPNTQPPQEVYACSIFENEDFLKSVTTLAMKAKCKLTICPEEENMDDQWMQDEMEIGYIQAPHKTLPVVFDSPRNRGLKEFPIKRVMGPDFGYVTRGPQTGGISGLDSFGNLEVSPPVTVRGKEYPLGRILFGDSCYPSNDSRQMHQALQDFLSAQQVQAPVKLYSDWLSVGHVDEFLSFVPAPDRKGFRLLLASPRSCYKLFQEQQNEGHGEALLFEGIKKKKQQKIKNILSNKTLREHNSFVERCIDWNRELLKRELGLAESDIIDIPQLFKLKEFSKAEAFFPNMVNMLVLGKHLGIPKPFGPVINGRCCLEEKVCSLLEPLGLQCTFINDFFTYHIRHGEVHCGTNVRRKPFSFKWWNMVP
Sphingosine 1-phosphate receptor 4, sequence (O95977 whole entry): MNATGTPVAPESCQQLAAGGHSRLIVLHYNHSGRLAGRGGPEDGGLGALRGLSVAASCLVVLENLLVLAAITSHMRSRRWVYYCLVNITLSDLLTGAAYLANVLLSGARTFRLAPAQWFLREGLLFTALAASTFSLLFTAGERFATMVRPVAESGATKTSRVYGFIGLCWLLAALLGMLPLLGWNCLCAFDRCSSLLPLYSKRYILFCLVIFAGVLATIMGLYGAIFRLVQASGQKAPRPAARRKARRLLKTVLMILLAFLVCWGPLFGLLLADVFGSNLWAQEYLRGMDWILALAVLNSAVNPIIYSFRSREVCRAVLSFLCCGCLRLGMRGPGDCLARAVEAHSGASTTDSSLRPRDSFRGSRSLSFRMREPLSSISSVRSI

In general, IC50 refers to the midpoint of a concentration-inhibition curve. `O=C1NCC2=C1C(c1ccccc1)Nc1ccccc1N2` (stereo not given): the IC50 in assay [1] was > 100 µM (inactive).
By EC50 is commonly meant the midpoint of the concentration-response curve. By AC50 is commonly meant the concentration giving half of the maximal activity seen. With `Oc1ccc2ccccc2c1N=Nc1ccccn1`, the EC50 in the assay “cells [2]” is 24 µM (active); on Beta-galactosidase, 25.7 µM (active); in assay [5], 0.471 µM (active); in assay [6], 2.43 µM (active); in assay [8] it was 3.4 µM (active); in [9] it was 2.29 µM (active). Further, the EC50 was 10.8 µM (active) in assay [10], 41 µM (active) in the assay “cells [11]” and 11.4 µM (active) in assay [12]. Besides, the AC50 in the assay with HEK293 was 7.41 µM (active); in the assay with INS1 it was 0.746 µM (active); in [13], 2.7 µM (active). Moreover, the IC50 in assay [3] was more than 32 µM; in [4], > 80 µM (inactive); at Exodeoxyribonuclease V, > 118 µM (inactive); in assay [7], 5.12 µM (active); on Nonstructural protein 1, 13.9 µM (active); in assay [14] it was > 118 µM (inactive).
On to `CCOc1ccc(CCNC(=O)CSc2cc(=O)n(CC)c3ccccc23)cc1OCC`, for which the figures for the EC50 in assay [15], in assay [16] and in assay [17] were > 79.4 µM (not active), 121 µM (not active) and > 79.4 µM (inactive), respectively.
For the compound `C=CCN1C(=O)C2(NNc3ccccc3O2)c2ccccc21` (stereo not given), the EC50 in assay [18] is < 0.195 µM (not active); in assay [19], 0.514 µM (active); in assay [22], 11.3 µM (active); in assay [23] it was 0.636 µM (active). The IC50 in assay [20] was 14.2 µM (active); in “cells [21]”, 11.7 µM (active).
`Fc1cccc(F)c1CSc1nnc(-c2ccccn2)n1Cc1ccco1`: the EC50 in [24] was > 20 µM (inactive); in assay [25] it was > 32 µM (inactive); in [26], > 64 µM (inactive); at Mu-type opioid receptor, > 32 µM (inactive).
Turning to `C/C(=N/NC(N)=S)c1cc2ccc(O)cc2oc1=O`, the EC50 in [27] is 93.5 µM (inactive); in assay [28], 11.8 µM (not active). Further, the IC50 at Large T antigen is 27.7 µM (active).

(Values after ChEMBL document CHEMBL1201862, “PubChem BioAssay data set” (2004).)
